The values below come from patent US8975249B2, “Heterocyclic compounds and uses thereof” (Celgene Avilomics Research, Inc., priority 2010, dated 2015).

One may read the IC50 as the midpoint of a concentration-inhibition curve. By EC50 is commonly meant the concentration at which the effect is half-maximal.

Like-named read-outs stand apart in the source and are kept apart here.

For experiment [1], the system named is HCC827 cells (EGFR delE746-A750). As to the kind of experiment: Cell proliferation (CellTiter Glo), HCC827 cells. (In general: ATP-based viability assays read luminescence as a measure of living cells.)
The target in experiment [2] is EGFR (WT) (Homo sapiens (Human), UniProt P00533). The experiment is described as follows: Omnia biochemical assay, EGFR-WT active enzyme. Conditions: [EGFR-WT]=5 nM, [ATP]=15 uM, 30 min pre-incubation. The method, then: Kinase reactions were started with the addition of 45 μL of the ATP/Tyr-Sox peptide substrate mix and monitored every 71 seconds for 60 minutes at λex360/λem485 in a Synergy^4 plate reader from BioTek (Winooski, Vt.).
The compound numbers correspond to the compound numbers in Table 1.

For experiment [3], the target named is EGFR double mutation L858R/T790M (H1975 cells) (Homo sapiens (Human), UniProt P00533, L858R/T790M). The experiment is described as follows: Phospho-EGFR signaling immunoblot in H1975 cells. The format is cell-based. As to conditions: for EC50: H1975 cells, 1 hr treatment, phospho-EGFR (Y1068); for Ratio WT/mutant (H1975): signaling EC50 WT EGFR / H1975. How it is done:
(§1) A431 human epidermoid carcinoma, H1975 human NSCLC and HCC827 human NSCLC adenocarcinoma cells were obtained from the American Type Culture Center (Manassas, Va.). A431 cells were grown in DMEM (Invitrogen, Carlsbad, Calif.) supplemented with 10% FBS (HyClone, South Logan, Utah) and 1% Penicillin-Streptomycin (P/S, Lonza, Walkersville, Md.).
(§2) All primary antibodies were obtained from Cell Signaling (Danvers, Mass.) and used at 1:1000. Secondary antibodies were used at 1:10,000. Goat anti-mouse IgG IRDye 800CW antibody was obtained from LiCor Biosciences (Lincoln, Nebr.) and goat anti-rabbit IgG Alexa Fluor 680 was obtained from Invitrogen.
(§3) Cells were grown in 12-well plates (Corning, Coring, N.Y.) to 90% confluence and then incubated in low-serum (0.1% FBS) media for 16-18 hr. […] A431 cells were then stimulated with 50 ng/ml EGF (Peprotech, Rocky Hill, N.J.) for 15 min. After treatment, cell monolayers were washed with cold PBS (Invitrogen) and immediately lysed by scrapping into 60 uL cold Cell Extraction Buffer (Invitrogen) supplemented with Complete Protease inhibitors (Roche, Indianapolis, Ind.) and PhosphoSTOP (Roche) phosphatase inhibitors.
(§4) Phospho-protein signals were quantitated using Odyssey Infrared Imaging (Li-Cor Biosciences).
(§5) To assess phosphor-EGFR signaling, blots were probed with rabbit anti-Phospho-EGFR (Y1068) and mouse total anti-EGFR antibodies. Phospho-EGFR signal was normalized to total EGFR expression for each sample. […] Normalized data was fitted using a sigmoidal curve analysis program (Graph Pad Prism version 5) with variable Hill slope to determine the EC50 values.
(§6) The compound numbers recited in Table 4 correspond to the compound numbers in Table 1.
A general note: In western blotting, separated proteins are transferred to a membrane and probed.

Experiment [4] deals with H1975 cells (EGFR L858R/T790M). The experiment is described as follows: Cell proliferation (CellTiter Glo), H1975 cells.
Experiment [5] deals with WT EGFR (A431 cells) (Homo sapiens (Human), UniProt P00533). The experiment is described as follows: Phospho-EGFR signaling immunoblot in A431 cells (WT EGFR). The format is cell-based. As to conditions: 1 hr treatment, EGF stimulated, phospho-EGFR (Y1068). The method, then:
as §1, §2, §3, §4, §5, §6

The mark [6] stands for this setting: proliferation GI50 WT EGFR / HCC827.
[7] abbreviates: proliferation GI50 WT EGFR / H1975.

For the compound `C=CC(=O)Nc1cccc(Oc2nc(Nc3ccc(N4CCN(C(=O)NC)CC4)cc3OC)ncc2C(F)(F)F)c1` [Compound I-21, 4-(4-(4-(3-acrylamidophenoxy)-5-(trifluoromethyl)pyrimidin-2-ylamino)-3-methoxyphenyl)-N-methylpiperazine-1-carboxamide], the “Ratio WT/mutant (HCC827)” value in experiment [1] (setting [6]) is listed as over 20. For the same compound, the IC50 in experiment [2] is 10 to 30 nM. The half-maximal effective concentration (EC50) in experiment [3] is 100 to 500 nM; in experiment [5] it was over 1000 nM. Further, the results for the “Ratio WT/mutant (H1975)” value in experiment [3] and in experiment [4] (setting [7]) were over 5 and over 1, respectively.
In the case of `C=CC(=O)Nc1cccc(Oc2nc(Nc3ccc(N4CCN(S(C)(=O)=O)CC4)cc3OC)ncc2C(F)(F)F)c1` [Compound I-22, N-(3-(2-(2-methoxy-4-(4-(methylsulfonyl)piperazin-1-yl)phenylamino)-5-(trifluoromethyl)pyrimidin-4-yloxy)phenyl)acrylamide], the “Ratio WT/mutant (HCC827)” value in experiment [1] (setting [6]) is on record as over 35. Also, the IC50 in experiment [2] is 30 to 100 nM. Moreover, the EC50 in experiment [3] was 100 to 500 nM; in experiment [5] it was over 1000 nM. In addition, the “Ratio WT/mutant (H1975)” value in experiment [3] was over 35; in experiment [4] (setting [7]) it was over 10.
In the case of `C=CC(=O)Nc1cccc(Nc2nc(Nc3ccc(N4CCS(=O)(=O)CC4)cc3OC)ncc2C(F)(F)F)c1` [Compound I-49, N-(3-(2-(2-methoxy-4,4-dioxo-4-thiomorpholinophenylamino)-5-(trifluoromethyl)pyrimidin-4-ylamino)phenyl)acrylamide], the “Ratio WT/mutant (HCC827)” value in experiment [1] (setting [6]) is on record as over 25. Moreover, the half-maximal inhibitory concentration (IC50) in experiment [2] is 1 to 10 nM. The EC50 in experiment [3] was 10 to 100 nM; in experiment [5], over 1000 nM. Further, the “Ratio WT/mutant (H1975)” value in experiment [3] is reported as over 20; in experiment [4] (setting [7]), over 10.
`C=CC(=O)Nc1cccc(Nc2nc(Nc3ccc(N4CCN(C(=O)OC)CC4)cc3OC)ncc2C(F)(F)F)c1` [Compound I-29, methyl 4-(4-(4-(3-acrylamidophenylamino)-5-(trifluoromethyl)pyrimidin-2-ylamino)-3-methoxyphenyl)piperazine-1-carboxylate]: the “Ratio WT/mutant (HCC827)” value in experiment [1] (setting [6]) was over 15. In experiment [2], the 50% inhibitory concentration (IC50) lay in the range of 10 to 30 nM. Moreover, in experiment [4] (setting [7]), the “Ratio WT/mutant (H1975)” value is over 10. This compound returned an EC50 in experiment [5] of over 1000 nM.
The corresponding values for `C=CC(=O)Nc1cccc(Oc2nc(Nc3ccc(N4CCN(S(N)(=O)=O)CC4)cc3OC)ncc2C(F)(F)F)c1` [Compound I-27, N-(3-(2-(2-methoxy-4-(4-sulfamoylpiperazin-1-yl)phenylamino)-5-(trifluoromethyl)pyrimidin-4-yloxy)phenyl)acrylamide] are over 10, 1 to 10 nM, over 1 and over 1000 nM.
For the compound `C=CC(=O)Nc1cccc(Nc2nc(Nc3ccc(N4CCN(S(C)(=O)=O)CC4)cc3OC)ncc2Cl)c1` [Compound I-41, N-(3-(5-chloro-2-(2-methoxy-4-(4-(methylsulfonyl)piperazin-1-yl)phenylamino)pyrimidin-4-ylamino)phenyl)acrylamide], the “Ratio WT/mutant (HCC827)” value in experiment [1] (setting [6]) was over 20. Also, in experiment [2], the IC50 was in the range of 30 to 100 nM. The EC50 in experiment [3] and in experiment [5] was over 1000 nM each time. The “Ratio WT/mutant (H1975)” value in experiment [3] and in experiment [4] (setting [7]) was over 1 throughout.
As for `C=CC(=O)Nc1cccc(Oc2nc(Nc3ccc(N4CCN(S(C)(=O)=O)CC4)cc3OC)ncc2Cl)c1` [Compound I-26, N-(3-(5-chloro-2-(2-methoxy-4-(4-(methylsulfonyl)piperazin-1-yl)phenylamino)pyrimidin-4-yloxy)phenyl)acrylamide], the “Ratio WT/mutant (HCC827)” value in experiment [1] (setting [6]) was over 35. Further, the IC50 in experiment [2] fell in the range of 10 to 30 nM. The 50% effective concentration (EC50) was 100 to 500 nM in experiment [3] and over 1000 nM in experiment [5]. The “Ratio WT/mutant (H1975)” value in experiment [3] is given as over 40; in experiment [4] (setting [7]) it was over 1.
Consider `C=CC(=O)Nc1cccc(Nc2nc(Nc3ccc(N4CCN(C(=O)CC)CC4)cc3OC)ncc2C(F)(F)F)c1` [Compound I-35, N-(3-(2-(2-methoxy-4-(4-propionylpiperazin-1-yl)phenylamino)-5-(trifluoromethyl)pyrimidin-4-ylamino)phenyl)acrylamide], for which the “Ratio WT/mutant (HCC827)” value in experiment [1] (setting [6]) is listed as over 25. In addition, the IC50 in experiment [2] fell in the range of 1 to 10 nM. In addition, the EC50 in experiment [3] is under 10 nM; in experiment [5], over 1000 nM. Moreover, in experiment [4] (setting [7]), the “Ratio WT/mutant (H1975)” value was over 10.
As to `C=CC(=O)Nc1cccc(Oc2nc(Nc3ccc(N4CCCOCC4)cc3OC)ncc2Cl)c1` [Compound I-37, N-(3-(5-chloro-2-(2-methoxy-4-(1,4-oxazepan-4-yl)phenylamino)pyrimidin-4-yloxy)phenyl)acrylamide], the “Ratio WT/mutant (HCC827)” value in experiment [1] (setting [6]) was over 10. The IC50 in experiment [2] lay within 30 to 100 nM. The “Ratio WT/mutant (H1975)” value in experiment [4] (setting [7]) is over 1.
Regarding `C=CC(=O)Nc1cccc(Oc2nc(Nc3ccc(N4CCN(C(=O)OC)CC4)cc3OC)ncc2C(F)(F)F)c1` [Compound I-20, methyl 4-(4-(4-(3-acrylamidophenoxy)-5-(trifluoromethyl)pyrimidin-2-ylamino)-3-methoxyphenyl)piperazine-1-carboxylate], the “Ratio WT/mutant (HCC827)” value in experiment [1] is over 15. For the same compound, the IC50 in experiment [2] is 10 to 30 nM. Also, the “Ratio WT/mutant (H1975)” value in experiment [4] is on record as over 5.
Regarding `C=CC(=O)Nc1cccc(Oc2nc(Nc3ccc(N4CCN(C(=O)CC(C)(C)C)CC4)cc3OC)ncc2Cl)c1` [Compound I-23, N-(3-(5-chloro-2-(4-(4-(3,3-dimethylbutanoyl)piperazin-1-yl)-2-methoxyphenylamino)pyrimidin-4-yloxy)phenyl)acrylamide], the “Ratio WT/mutant (HCC827)” value in experiment [1] (setting [6]) is on record as over 20. In experiment [2], the half-inhibitory concentration (IC50) is 100 to 300 nM. The “Ratio WT/mutant (H1975)” value in experiment [4] (setting [7]) is on record as over 1.
On the same counts, the results for `C=CC(=O)Nc1cccc(Nc2nc(Nc3ccc(N4CCN(C(=O)NC)CC4)cc3OC)ncc2C(F)(F)F)c1` [Compound I-28, 4-(4-(4-(3-acrylamidophenylamino)-5-(trifluoromethyl)pyrimidin-2-ylamino)-3-methoxyphenyl)-N-methylpiperazine-1-carboxamide] are over 50, 1 to 10 nM and over 5.
On the same counts, the results for `C=CC(=O)Nc1cccc(Nc2nc(Nc3ccc(N4CCCOCC4)cc3OC)ncc2C(F)(F)F)c1` [Compound I-38, N-(3-(2-(2-methoxy-4-(1,4-oxazepan-4-yl)phenylamino)-5-(trifluoromethyl)pyrimidin-4-ylamino)phenyl)acrylamide] are over 5, 10 to 30 nM and over 1.
Consider `C=CC(=O)Nc1cccc(Oc2nc(Nc3ccc(N4CCOCC4)cc3OC(F)F)ncc2C(F)(F)F)c1` [Compound I-13, N-(3-(2-(2-(difluoromethoxy)-4-morpholinophenylamino)-5-(trifluoromethyl)pyrimidin-4-yloxy)phenyl)acrylamide], for which the “Ratio WT/mutant (HCC827)” value in experiment [1] (setting [6]) is over 50. Moreover, the IC50 in experiment [2] lay within 30 to 100 nM. This compound gave an EC50 in experiment [3] of 10 to 100 nM. Further, the “Ratio WT/mutant (H1975)” value in experiment [4] (setting [7]) is reported as over 10.
For `C=CC(=O)Nc1cccc(Oc2nc(Nc3ccc(N4CCN(C(C)=O)CC4)cc3OC)ncc2Cl)c1` [Compound I-9, N-(3-(2-(4-(4-acetylpiperazin-1-yl)-2-methoxyphenylamino)-5-chloropyrimidin-4-yloxy)phenyl)acrylamide], the “Ratio WT/mutant (HCC827)” value in experiment [1] (setting [6]) is on record as over 50. In experiment [2], the concentration for half-maximal inhibition (IC50) is 1 to 10 nM. Moreover, the “Ratio WT/mutant (H1975)” value in experiment [4] (setting [7]) is on record as over 5. Moreover, the EC50 in experiment [5] was over 1000 nM.
